Assay results reported in article PMC10837402, “Unnatural amino acid substitutions to improve in vivo stability and tumor uptake of ^68Ga-labeled GRPR-targeted TacBOMB2 derivatives for cancer imaging with positron emission tomography” (EJNMMI Radiopharmacy and Chemistry, 2024).
“And” between values parts separate entries of the source, which are not always exact repeats. Identical values can stand only once. Starred links: 1 amine or outer side, 2 acyl side, 3 side chain; linkers in the order of their positions; H or OH if unused. Non-standard residues stand in square brackets, D forms with d. Residues, ends and D or L forms follow the SMILES beside them. *: point of attachment. DOTA = O=C(O)CN1CCN(CC(=O)O)CCN(CC(=O)*)CCN(CC(=O)O)CC1; NMeH = CN[C@@H](Cc1c[nH]cn1)C(=O)O; X1 = O=C(CN1CCC(N[*:1])CC1)[*:2]; Tle = CC(C)(C)[C@H](N)C(=O)O; hSer = N[C@@H](CCO)C(=O)O; Thz = O=C(O)[C@@H]1CSCN1; Abu = CC[C@H](N)C(=O)O; Aib = CC(C)(N)C(=O)O

biological target: T1, GRPR (Homo sapiens, UniProt P30550); test: In vitro competition binding assay using PC-3 cells and [^125I-Tyr^4]Bombesin as the radioligand; conditions: PC-3 cells, mean ± SD, n = 3, read-out: GRPR binding affinity (Ki)
T1 construct: generated using GRPR-expressing PC-3 cells; endogenous in cells; host or cells: PC-3 cells
T1 sequence (P30550 whole entry): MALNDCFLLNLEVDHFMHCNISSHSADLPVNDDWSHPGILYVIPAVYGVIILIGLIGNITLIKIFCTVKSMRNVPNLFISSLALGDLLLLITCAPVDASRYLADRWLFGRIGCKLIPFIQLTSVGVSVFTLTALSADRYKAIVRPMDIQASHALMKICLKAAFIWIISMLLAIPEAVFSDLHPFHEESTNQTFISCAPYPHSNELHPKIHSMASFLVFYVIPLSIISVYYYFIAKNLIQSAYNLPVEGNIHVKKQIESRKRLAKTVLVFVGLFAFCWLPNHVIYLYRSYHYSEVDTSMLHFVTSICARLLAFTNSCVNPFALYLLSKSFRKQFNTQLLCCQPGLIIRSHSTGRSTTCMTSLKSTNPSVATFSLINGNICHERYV
Method: [2022], [2023]; Bratanovic et al. [2022]). The assays were conducted in triplicate with varied concentrations (10 μM to 1 pM) of tested ligands. […] The growth medium was replaced with 400 μL of reaction medium (RPMI 1640 containing 2 mg/mL BSA, and 20 mM HEPES), then the plates were incubated at 37 °C for 60 min. […] Data were analyzed using nonlinear regression with GraphPad (San Diego, CA, USA) Prism 8 software.

Row | Molecule | Ki
1 | CC(C)C[C@H](NC(=O)[C@H](Cc1c[nH]cn1)NC(=O)CNC(=O)[C@@H](NC(=O)C(C)(C)NC(=O)[C@H](Cc1c[nH]c2ccccc12)NC(=O)[C@H](CCC(N)=O)NC(=O)[C@H](N)Cc1ccccc1)C(C)C)C(=O)N1CSC[C@H]1C(N)=O [LW01075, D-Phe-Gln-Trp-Aib-Val-Gly-His-Leu-Thz-NH2] (H-[dF]QW[Aib]VGHL[Thz]-NH2) | > 150 nM and 2410 nM
2 | CC[C@H](NC(=O)[C@H](Cc1c[nH]c2ccccc12)NC(=O)[C@H](CCC(N)=O)NC(=O)[C@H](N)Cc1ccccc1)C(=O)N[C@H](C(=O)NCC(=O)N[C@@H](Cc1c[nH]cn1)C(=O)N[C@@H](CC(C)C)C(=O)N1CSC[C@H]1C(N)=O)C(C)C [LW01078, D-Phe-Gln-Trp-2-Abu-Val-Gly-His-Leu-Thz-NH2] (H-[dF]QW[Abu]VGHL[Thz]-NH2) | 27.2 ± 8.62 nM
3 | CC[C@H](NC(=O)[C@H](C)NC(=O)[C@H](Cc1c[nH]c2ccccc12)NC(=O)[C@H](CCC(N)=O)NC(=O)[C@H](N)Cc1ccccc1)C(=O)NCC(=O)N[C@@H](Cc1c[nH]cn1)C(=O)N[C@@H](CC(C)C)C(=O)N1CSC[C@H]1C(N)=O [LW01083, D-Phe-Gln-Trp-Ala-2-Abu-Gly-His-Leu-Thz-NH2] | > 150 nM and 406 nM
4 | CC(C)C[C@H](NC(=O)[C@H](Cc1c[nH]cn1)NC(=O)CNC(=O)[C@@H](NC(=O)[C@H](C)NC(=O)[C@H](Cc1c[nH]c2cc(Cl)ccc12)NC(=O)[C@H](CCC(N)=O)NC(=O)[C@H](N)Cc1ccccc1)C(C)C)C(=O)N1CSC[C@H]1C(N)=O [LW01137, D-Phe-Gln-6-Cl-Trp-Ala-Val-Gly-His-Leu-Thz-NH2] | > 150 nM and 829 nM

Further lines, results first:

Row | Ki | Molecule
5 | > 150 nM and 1450 nM | Cc1ccc2c(C[C@H](NC(=O)[C@H](CCC(N)=O)NC(=O)[C@H](N)Cc3ccccc3)C(=O)N[C@@H](C)C(=O)N[C@H](C(=O)NCC(=O)N[C@@H](Cc3c[nH]cn3)C(=O)N[C@@H](CC(C)C)C(=O)N3CSC[C@H]3C(N)=O)C(C)C)c[nH]c2c1 [LW01171, D-Phe-Gln-6-Me-Trp-Ala-Val-Gly-His-Leu-Thz-NH2]
6 | > 150 nM | CC(C)C[C@H](NC(=O)[C@H](Cc1c[nH]cn1)NC(=O)CNC(=O)[C@@H](NC(=O)[C@H](C)NC(=O)[C@H](Cc1c[nH]c2ncccc12)NC(=O)[C@H](CCC(N)=O)NC(=O)[C@H](N)Cc1ccccc1)C(C)C)C(=O)N1CSC[C@H]1C(N)=O [LW02013, D-Phe-Gln-7-Aza-Trp-Ala-Val-Gly-His-Leu-Thz-NH2]
7 | > 150 nM and 196 nM | CC(C)C[C@H](NC(=O)[C@H](Cc1c[nH]cn1)NC(=O)CNC(=O)[C@@H](NC(=O)[C@H](C)NC(=O)[C@H](Cc1c[nH]c2ccccc12)NC(=O)[C@H](CCO)NC(=O)[C@H](N)Cc1ccccc1)C(C)C)C(=O)N1CSC[C@H]1C(N)=O [LW02030, D-Phe-Hse-Trp-Ala-Val-Gly-His-Leu-Thz-NH2] (H-[dF][hSer]WAVGHL[Thz]-NH2)
8 | 35.7 ± 27.4 nM | CC(C)C[C@H](NC(=O)[C@H](Cc1c[nH]cn1)NC(=O)CNC(=O)[C@@H](NC(=O)[C@H](C)NC(=O)[C@H](Cc1c[nH]c2ccccc12)NC(=O)[C@H](CCC(N)=O)NC(=O)[C@H](N)Cc1ccccc1)C1CCC1)C(=O)N1CSC[C@H]1C(N)=O [LW02019, D-Phe-Gln-Trp-Ala-cyclobutaneacetic acid-Gly-His-Leu-Thz-NH2]
9 | > 150 nM and 2030 nM | CC(C)C[C@H](NC(=O)[C@H](Cc1c[nH]cn1)NC(=O)CNC(=O)[C@@H](NC(=O)[C@H](C)NC(=O)[C@H](Cc1c[nH]c2ccc(O)cc12)NC(=O)[C@H](CCC(N)=O)NC(=O)[C@H](N)Cc1ccccc1)C(C)C)C(=O)N1CSC[C@H]1C(N)=O [LW01173, D-Phe-Gln-5-OH-Trp-Ala-Val-Gly-His-Leu-Thz-NH2]
10 | > 10000 nM | CC(C)C[C@H](NC(=O)[C@H](Cc1c[nH]cn1)NC(=O)CNC(=O)[C@@H](NC(=O)[C@H](C)NC(=O)[C@H]1Cc2c([nH]c3ccccc23)CN1C(=O)[C@H](CCC(N)=O)NC(=O)[C@H](N)Cc1ccccc1)C(C)C)C(=O)N1CSC[C@H]1C(N)=O [LW01191, D-Phe-Gln-D-Tpi-Ala-Val-Gly-His-Leu-Thz-NH2]
11 | > 10000 nM | CC(C)=C(NC(=O)[C@H](C)NC(=O)[C@H](Cc1c[nH]c2ccccc12)NC(=O)[C@H](CCC(N)=O)NC(=O)[C@H](N)Cc1ccccc1)C(=O)NCC(=O)N[C@@H](Cc1c[nH]cn1)C(=O)N[C@@H](CC(C)C)C(=O)N1CSC[C@H]1C(N)=O [LW02011, D-Phe-Gln-Trp-Ala-2,3-dehydro-Val-Gly-His-Leu-Thz-NH2]

biological target: T1, GRPR; test: Fluorometric calcium release assay in PC-3 cells; type: cell-based; conditions: 50 nM ligand
Method: The growth medium was removed and replaced with a loading buffer containing a calcium-sensitive dye (FLIPR Calcium 6 assay kit from Molecular Devices, San Jose, CA, USA). After incubated at 37 °C for 30 min, the plates were placed in a FlexStation 3 microplate reader (Molecular Devices). Tested ligands (50 nM) or DPBS (negative control) were added to the cells and the fluorescent signals were acquired for 2 min. Agonistic/antagonistic properties of the tested ligands were determined based on the relative fluorescent unit (RFU = max – min) of their generated fluorescent signals.

Row | Ca^2+ efflux (relative fluorescence units, RFU = max – min) | Molecule
12 | 242 ± 44.1 RFUs | CC(C)C[C@H](NC(=O)[C@H](Cc1c[nH]cn1)N(C)C(=O)CNC(=O)[C@@H](NC(=O)[C@H](C)NC(=O)[C@H](Cc1c[nH]c2c(F)cccc12)NC(=O)[C@H](CCC(N)=O)NC(=O)[C@@H](Cc1ccccc1)NC(=O)CN1CCC(NC(=O)CN2CCN(CC(=O)O)CCN(CC(=O)O)CCN(CC(=O)O)CC2)CC1)C(C)(C)C)C(=O)N1CSC[C@H]1C(N)=O [Ga-LW02040, Ga-DOTA-Pip-D-Phe-Gln-7-F-Trp-Ala-Tle-Gly-NMe-His-Leu-Thz-NH2]
13 | 197 ± 50.3 RFUs | Cc1[nH]c2ccccc2c1C[C@H](NC(=O)[C@H](CCC(N)=O)NC(=O)[C@@H](Cc1ccccc1)NC(=O)CN1CCC(NC(=O)CN2CCN(CC(=O)O)CCN(CC(=O)O)CCN(CC(=O)O)CC2)CC1)C(=O)N[C@@H](C)C(=O)N[C@H](C(=O)NCC(=O)N[C@@H](Cc1c[nH]cn1)C(=O)N[C@@H](CC(C)C)C(=O)N1CSC[C@H]1C(N)=O)C(C)C [Ga-LW02025, Ga-DOTA-Pip-D-Phe-Gln-2-Me-Trp-Ala-Val-Gly-His-Leu-Thz-NH2]
14 | 450 ± 136 RFUs | bombesin [reference compound]
15 | 559 ± 96.2 RFUs | CC(C)C[C@H](NC(=O)[C@H](Cc1c[nH]cn1)N(C)C(=O)CNC(=O)[C@@H](NC(=O)[C@H](C)NC(=O)[C@H](Cc1c[nH]c2ccccc12)NC(=O)[C@H](Cc1c[nH]cn1)NC(=O)[C@@H](Cc1ccccc1)NC(=O)CN1CCC(NC(=O)CN2CCN(CC(=O)O)CCN(CC(=O)O)CCN(CC(=O)O)CC2)CC1)C(C)(C)C)C(=O)N1CSC[C@H]1C(N)=O [Ga-LW01142, Ga-DOTA-Pip-D-Phe-His-Trp-Ala-Tle-Gly-NMe-His-Leu-Thz-NH2] ({DOTA}-[X1][dF]HWA[Tle]G[NMeH]L[Thz]-NH2)
16 | 521 ± 43.7 RFUs | CC(C)C[C@H](NC(=O)[C@H](Cc1c[nH]cn1)N(C)C(=O)CNC(=O)[C@@H](NC(=O)[C@H](C)NC(=O)[C@H](Cc1c[nH]c2ccccc12)NC(=O)[C@H](CCC(N)=O)NC(=O)[C@@H](Cc1ccccc1)NC(=O)CN1CCC(NC(=O)CN2CCN(CC(=O)O)CCN(CC(=O)O)CCN(CC(=O)O)CC2)CC1)C(C)(C)C)C(=O)N1CSC[C@H]1C(N)=O [Ga-LW01110, Ga-DOTA-Pip-D-Phe-Gln-Trp-Ala-Tle-Gly-NMe-His-Leu-Thz-NH2]
17 | 38.2 ± 7.20 RFUs | [D-Phe^6,Leu-NHEt^13,des-Met^14]Bombesin(6–14) [reference compound]
18 | 549 ± 46.7 RFUs | CC(C)C[C@H](NC(=O)[C@H](Cc1c[nH]cn1)NC(=O)CNC(=O)[C@@H](NC(=O)[C@H](C)NC(=O)[C@H](Cc1c[nH]c2ccccc12)NC(=O)[C@H](CCC(N)=O)NC(=O)[C@@H](Cc1ccccc1)NC(=O)CN1CCC(NC(=O)CN2CCN(CC(=O)O)CCN(CC(=O)O)CCN(CC(=O)O)CC2)CC1)C(C)(C)C)C(=O)N1CSC[C@H]1C(N)=O [Ga-LW01108, Ga-DOTA-Pip-D-Phe-Gln-Trp-Ala-Tle-Gly-His-Leu-Thz-NH2]

Row | Molecule | Ca^2+ efflux (relative fluorescence units, RFU = max – min)
19 | Cc1ccc2[nH]cc(C[C@H](NC(=O)[C@H](CCC(N)=O)NC(=O)[C@@H](Cc3ccccc3)NC(=O)CN3CCC(NC(=O)CN4CCN(CC(=O)O)CCN(CC(=O)O)CCN(CC(=O)O)CC4)CC3)C(=O)N[C@@H](C)C(=O)N[C@H](C(=O)NCC(=O)N[C@@H](Cc3c[nH]cn3)C(=O)N[C@@H](CC(C)C)C(=O)N3CSC[C@H]3C(N)=O)C(C)C)c2c1 [Ga-LW02023, Ga-DOTA-Pip-D-Phe-Gln-5-Me-Trp-Ala-Val-Gly-His-Leu-Thz-NH2] | 312 ± 45.9 RFUs
20 | Nc1ncnc2c1ncn2[C@@H]1O[C@H](COP(=O)(O)OP(=O)(O)OP(=O)(O)O)[C@@H](O)[C@H]1O [ATP, reference compound] | 253 ± 46.5 RFUs
21 | Ga-DOTA-Pip-D-Phe-Gln-7-F-Trp-Ala-Val-Gly-His-Leu-Thz-NH2 [Ga-LW02021] | 178 ± 53.7 RFUs
22 | Ga-DOTA-Pip-D-Phe-Gln-Trp-Ala-Val-Gly-NMe-His-Leu-Thz-NH2 [Ga-LW01107] | 1,004 ± 32.0 RFUs
